Data published in article PMC8922279, “Identification of β-Lactams Active against Mycobacterium tuberculosis by a Consortium of Pharmaceutical Companies and Academic Institutions” (ACS Infectious Diseases, 2022).

Key:
E. coli = experiment: Microbial spectrum, E. coli; assay type: cell-based, Escherichia coli; conditions: clavulanate 4 μg/mL; Table S4
Mtb H37Rv [1] = experiment: MIC90 against nonreplicating (NR, 4-stress) Mtb H37Rv, with or without clavulanate; assay type: cell-based, Mycobacterium tuberculosis; conditions: 4-stress nonreplicating, Table S4; for Mtb H37Rv NR + CLAV (MIC90): clavulanate 4 μg/mL; for Mtb H37Rv NR (MIC90): no clavulanate
Mtb H37Rv [2] = experiment: MIC90 against replicating (R) Mtb H37Rv, with or without clavulanate; assay type: cell-based, Mycobacterium tuberculosis; conditions: Table S4; for Mtb H37Rv R + CLAV (MIC90): clavulanate 4 μg/mL; for Mtb H37Rv R (MIC90): no clavulanate
S. aureus = experiment: Microbial spectrum, S. aureus; assay type: cell-based, Staphylococcus aureus; conditions: clavulanate 4 μg/mL; Table S4
P. aeruginosa = experiment: Microbial spectrum, P. aeruginosa; assay type: cell-based, Pseudomonas aeruginosa; conditions: clavulanate 4 μg/mL; Table S4
C. albicans = experiment: Microbial spectrum, C. albicans; assay type: cell-based, Candida albicans; conditions: no clavulanate; Table S4

| Compound | E.coli R + CLAV (MIC90) (E. coli) | Mtb H37Rv NR + CLAV (MIC90) (Mtb H37Rv [1]) | Mtb H37Rv NR (MIC90) (Mtb H37Rv [1]) | Mtb H37Rv R + CLAV (MIC90) (Mtb H37Rv [2]) | Mtb H37Rv R (MIC90) (Mtb H37Rv [2]) | S.aureus R + CLAV (MIC90) (S. aureus) | P.aeruginosa R + CLAV (MIC90) (P. aeruginosa) | C.albicans R (MIC90) (C. albicans) |
| --- | --- | --- | --- | --- | --- | --- | --- | --- |
| Cn1nnnc1SCC1=C(C(=O)O)N2C(=O)[C@@H](NC(=O)Cc3ccc(C4=NCCN4)cc3)[C@H]2SC1 [TBBL-0000323] | 14 µM | > 100 µM | > 100 µM | 0.8 µM | 31.9 µM | 1.8 µM | > 100 µM | > 100 µM |
| CC(O)Cn1nnnc1SCC1=C(C(=O)O)N2C(=O)[C@@H](NC(=O)Cc3csc(=O)s3)[C@H]2SC1 (some centres unmarked) [TBBL-0000325] | 3.8 µM | > 100 µM | > 100 µM | 1.4 µM | 53.2 µM | 0.6 µM | > 100 µM | > 100 µM |
| CC1=C(C(=O)O)N2C(=O)[C@@H](NC(=O)CSc3ccc(C(=N)N)cc3)[C@H]2SC1 [TBBL-0000328] | > 100 µM | > 100 µM | > 100 µM | 1.4 µM | 64.1 µM | 12.9 µM | > 100 µM | > 100 µM |
| Cc1nnc(SCC2=C(C(=O)O)N3C(=O)[C@@H](NC(=O)Cc4sc(=O)sc4C)[C@H]3SC2)s1 [TBBL-0000330] | > 100 µM | > 100 µM | > 100 µM | 2.8 µM | 27.6 µM | > 100 µM | > 100 µM | > 100 µM |
| Cc1nnc(SCC2=C(C(=O)O)N3C(=O)[C@@H](NC(=O)CSc4cc(Cl)ccc4Cl)[C@H]3SC2)s1 [TBBL-0000415] | 22.7 µM | > 100 µM | > 100 µM | 1.6 µM | 22.9 µM | < 0.1 µM | > 100 µM | > 100 µM |
| CCc1cc[n+](CC2=C(C(=O)[O-])N3C(=O)[C@@H](NC(=O)Cc4cccs4)[C@H]3SC2)cc1 [TBBL-0000418] | 7 µM | > 100 µM | > 100 µM | 1.4 µM | 100 µM | 0.5 µM | > 100 µM | > 100 µM |
| N=C(N)SCc1ccccc1SC1=C(C(=O)O)N2C(=O)[C@@H](NC(=O)C(N)c3ccccc3)[C@H]2CC1 (some centres unmarked) [TBBL-0000435] | > 100 µM | > 100 µM | > 100 µM | 1.1 µM | 90.2 µM | 0.8 µM | > 100 µM | > 100 µM |
| Cn1nnnc1SCC1=C(C(=O)O)N2C(=O)[C@@H](NC(=O)CSc3cc(Cl)ccc3Cl)[C@H]2SC1 [TBBL-0000446] | 13.3 µM | > 100 µM | > 100 µM | 1.5 µM | 20.7 µM | < 0.1 µM | > 100 µM | > 100 µM |
| O=C(Cc1cccs1)N[C@@H]1C(=O)N2C(C(=O)O)=C(C[n+]3ccccn3)CS[C@H]12 [TBBL-0000466] | 35.1 µM | > 100 µM | > 100 µM | 1.8 µM | 39 µM | 0.5 µM | > 100 µM | > 100 µM |
| Nc1nnc(SCC2=C(C(=O)O)N3C(=O)[C@@H](NC(=O)CSc4cc(Cl)ccc4Cl)[C@H]3SC2)s1 [TBBL-0000467] | > 100 µM | > 100 µM | > 100 µM | 1.5 µM | 52.2 µM | < 0.1 µM | > 100 µM | > 100 µM |
